Laboratory results published in patent US20140357633A1, “COMPOUNDS FOR INHIBITING THE INTERACTION OF BCL2 WITH BINDING PARTNERS” (NOVARTIS AG, priority 2011, published 2014).
Several values for one entry are separate records, joined by “and”; a condition that tells them apart may be missing. Equal entries are not always repeated.

Assays:
[1] = target: BCL-2 (binding to BAD peptide) (Homo sapiens, UniProt P10415); test: SPR (Biacore) solution inhibition assay, BCL-2 binding to immobilized BAD peptide; settings: biotinylated BAD peptide surface, 56 nM BCL-2, 25° C.; range = high and low IC50 values from multiple experiments; read-out: BCL2_SPR IC50 BAD
Excerpt: (§1) The present method includes utility of a Surface plasmon resonance (SPR)-based biosensor (Biacore™′ GE Healthcare, Uppsala, Sweden) to characterize BCL-2 inhibitors.
(§2) Biacore™ utilizes the phenomenon of surface plasmon resonance (SPR) to detect and measure binding interactions. In a typical Biacore experiment, one of the interacting molecules (ligand) is immobilized on a flexible dextran matrix while the interacting partner (analyte) is allowed to flow across that surface. A binding interaction results in an increase in mass on the sensor surface and a corresponding direct change in the refractive index of the medium in the vicinity of the sensor surface. Changes in refractive index or signal are recorded in resonance units (R.U.) Signal changes due to association and dissociation of complexes are monitored in a non-invasive manner, continuously and in real-time, the results of which are reported in the form of a sensorgram.
(§3) The SPR assay is configured to examine solution inhibition of BCL-2 binding to peptide derivatized sensor surfaces to generate IC50 values as a measure of inhibitor potency.
(§4) Biacore™ A100 (GE Healthcare, Uppsala, Sweden) was used to conduct all experiments reported herein. Sensor surface preparation and all interaction analyses experiments were performed at 25° C. Reagents were purchased from GE Healthcare. Running buffer containing 10 mM Hepes, pH7.4, 150 mM sodium chloride, 1.25 mM Dithiothreitol, 3% Dimethyl sulfoxide and 0.05% polysorbate 20 were utilized throughout all analyses.
(§5) Biotinylated BAK, BAD and NOXA peptides were diluted to 10 nM in running buffer and captured onto a sensor surface pre-derivatized with streptavidin (sensor chip SA) to peptide surface densities in the range 50-100 R.U. Peptide captured surfaces were blocked with 500 μM PEO2-Biotin.
(§6) Interaction analyses were performed by first equilibrating each sample within a 6 point three fold compound dilution series in the range 16 μM to […] with 56 nM BCL-2 for one hour during instrument start-up procedures. Protein compound mixtures were then injected over each peptide surface in parallel for 60 seconds at a flow-rate of 30 μL/min. 56 nM BCL-2 control samples were also prepared and run at regular intervals during the assay. Surface regeneration was performed at the end of each analysis cycle by two 30 second injections of 10 mM Glycine, pH 2.5, 1M Sodium Chloride, 0.05% polysorbate 20. Samples and control compound samples were run in duplicate and controls are also run at regular intervals during the assay to monitor surface and assay performance.
(§7) Data analyses are carried out using Biacore™ A100 evaluation software v1.1 to validate assay quality. Binding level report points were used relative to BCL-2 control samples to calculate % inhibition values for each compound protein mixture. […] The range of data shown in table 1 represents the high and low IC50 values obtained from multiple experiments.

[2] = target: BCL-2 (binding to BAK peptide) (Homo sapiens, UniProt P10415); test: SPR (Biacore) solution inhibition assay, BCL-2 binding to immobilized BAK peptide; settings: biotinylated BAK peptide surface, 56 nM BCL-2, 25° C.; range = high and low IC50 values from multiple experiments; read-out: BCL2_SPR IC50 BAK
Excerpt: as §1, §2, §3, §4, §5, §6, §7

Sequence of BCL-2 (binding to BAD peptide) (P10415 whole entry): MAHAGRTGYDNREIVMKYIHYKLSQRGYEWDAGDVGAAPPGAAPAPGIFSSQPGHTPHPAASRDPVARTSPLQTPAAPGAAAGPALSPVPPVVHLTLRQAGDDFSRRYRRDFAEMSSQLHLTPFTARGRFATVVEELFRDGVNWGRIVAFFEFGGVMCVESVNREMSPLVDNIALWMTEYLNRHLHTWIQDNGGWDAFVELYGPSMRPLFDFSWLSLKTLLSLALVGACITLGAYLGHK
Sequence of BCL-2 (binding to BAK peptide) (P10415 whole entry): as above

| SMILES | IC50 [1] | IC50 [2] |
| --- | --- | --- |
| CCCCN(CCCC)C(=O)c1cc(C)n(-c2ccc(NC(=O)C(CCNC(C)=O)c3ccccc3)cc2C(=O)C2Cc3ccccc3C[C@H]2CO)n1 (some centres unmarked) [Example 74] | 95.1 to 96 nM | 80.8 to 81.4 nM |
| CCCCN(CCCC)C(=O)c1cc(C)n(-c2ccc(NC(=O)c3cccc(Cl)c3O)cc2C(=O)N2Cc3ccccc3C[C@H]2CO)n1 [Example 83] | 81.6 to 89.1 nM | 65.3 to 69.7 nM |
| CCCCN(CCCC)C(=O)c1cc(C)n(-c2ccc(NC(=O)c3cn4ccsc4n3)cc2C(=O)N2Cc3ccccc3C[C@H]2CO)n1 [Example 102] | 364 to 394 nM | 268 nM |
| CCCCN(CCCC)C(=O)c1cc(C)n(-c2ccc(NC(=O)C3CC(=O)N(Cc4ccccc4Cl)C3)cc2C(=O)N2Cc3ccccc3C[C@H]2CO)n1 (some centres unmarked) [Example 41] | 96.4 to 97.6 nM | 75.4 to 83.3 nM |
| CCCCN(CCCC)C(=O)c1cc(C)n(-c2ccc(NC(=O)Cc3ccccc3)cc2C(=O)N2Cc3ccccc3C[C@H]2CO)n1 [Example 5] | 95.9 to 129 nM | 98 to 134 nM |
| CCCCC(CCCC)C(=O)c1cc(C)n(-c2ccc(NC(=O)COc3ccc(N4CCCC4=O)cc3)cc2C(=O)N2Cc3ccccc3C[C@H]2CO)n1 [Example 48] | 846 to 870 nM | 581 to 600 nM |
| CCCCN(CCCC)C(=O)c1cc(C)n(-c2ccc(NC(=O)COc3cccc(OC)c3)cc2C(=O)N2Cc3ccccc3C[C@H]2CO)n1 [Example 22] | 3450 nM | 2620 to 3490 nM |
| CCCCN(CCCC)C(=O)c1cc(C)n(-c2ccc(NC(=O)Cc3ccc(O)cc3)cc2C(=O)N2Cc3ccccc3C[C@H]2CO)n1 [Example 157] | 80.3 to 93.4 nM | 64.7 to 75.3 nM |
| CCCCC(CCCC)C(=O)c1cc(C)n(-c2ccc(NC(=O)C(CC(=O)O)C3CCCCC3)cc2C(=O)N2Cc3ccccc3C[C@H]2CO)n1 (some centres unmarked) [Example 103] | 54.1 to 55.9 nM | 50.2 to 51.9 nM |
| CCCCN(CCCC)C(=O)c1cc(C)n(-c2ccc(NC(=O)c3ccc(NS(=O)(=O)Cc4ccccc4)cc3)cc2C(=O)N2Cc3ccccc3C[C@H]2CO)n1 [Example 143] | 455 to 539 nM | 426 to 594 nM |
| CCCCN(CCCC)C(=O)c1cc(C)n(-c2ccc(NC(=O)COc3ccc(OCc4ccccc4)cc3)cc2C(=O)N2Cc3ccccc3C[C@H]2CO)n1 [Example 20] | 1220 to 1810 nM | 1220 to 2070 nM |
| CCCCN(CCCC)C(=O)c1cc(C)n(-c2ccc(NC(=O)COc3ccc([N+](=O)[O-])cc3)cc2C(=O)N2Cc3ccccc3C[C@H]2CO)n1 [Example 21] | 2390 to 2670 nM | 1950 to 2170 nM |
| CCCCN(CCCC)C(=O)c1cc(C)n(-c2ccc(NC(=O)OCC)cc2C(=O)N2Cc3ccccc3C[C@H]2CO)n1 [Example 11] | 591 to 599 nM | 550 to 557 nM |
| CCCCN(CCCC)C(=O)c1cc(C)n(-c2ccc(NC(=O)CCC3COc4ccccc43)cc2C(=O)N2Cc3ccccc3C[C@H]2CO)n1 (some centres unmarked) [Example 130] | 60.7 to 61.4 nM | 50.2 to 53.1 nM |
| CCCCN(CCCC)C(=O)c1cc(C)n(-c2ccc(NC(=O)Cc3cccc(Br)c3)cc2C(=O)N2Cc3ccccc3C[C@H]2CO)n1 [Example 138] | 56.1 to 60.8 nM | 43.8 to 53 nM |
| CCCCN(CCCC)C(=O)c1cc(C)n(-c2ccc(NC(=O)C3CC(=O)N(Cc4ccc(F)cc4)C3)cc2C(=O)N2Cc3ccccc3C[C@H]2CO)n1 (some centres unmarked) [Example 50] | 702 to 723 nM | 554 to 643 nM |
| CCCCN(CCCC)C(=O)c1cc(C)n(-c2ccc(NC(=O)C3CC(=O)N(c4ccc(OCC)cc4)C3)cc2C(=O)N2Cc3ccccc3C[C@H]2CO)n1 (some centres unmarked) [Example 115] | 180 to 204 nM | 153 to 154 nM |
| CCCCN(CCCC)C(=O)c1cc(C)n(-c2ccc(NC(=O)CCCc3ccc([N+](=O)[O-])cc3)cc2C(=O)N2Cc3ccccc3C[C@H]2CO)n1 [Example 61] | 306 to 319 nM | 229 to 271 nM |
| CCCCN(CCCC)C(=O)c1cc(C)n(-c2ccc(NC(=O)Cc3cccc(OC)c3)cc2C(=O)N2Cc3ccccc3C[C@H]2CO)n1 [Example 69] | 91.3 to 101 nM | 67.3 to 73.9 nM |
| CCCCN(CCCC)C(=O)c1cc(C)n(-c2ccc(NC(=O)Cc3c(C)[nH]c4c(F)cccc34)cc2C(=O)N2Cc3ccccc3C[C@H]2CO)n1 [Example 63] | 67.4 to 76.1 nM | 58.3 to 61.2 nM |

| SMILES | IC50 [1] | IC50 [2] |
| --- | --- | --- |
| CCCCN(CCCC)C(=O)c1cc(C)n(-c2ccc(NC(=O)C3CC(=O)N(CCc4ccc(OC)c(OC)c4)C3)cc2C(=O)N2Cc3ccccc3C[C@H]2CO)n1 (some centres unmarked) [Example 104] | 351 to 376 nM | 252 to 256 nM |
| CCCCN(CCCC)C(=O)c1cc(C)n(-c2ccc(NC(=O)CC3CCCCC3)cc2C(=O)N2Cc3ccccc3C[C@H]2CO)n1 [Example 28] | 264 to 296 nM | 291 to 325 nM |
| CCCCN(CCCC)C(=O)c1cc(C)n(-c2ccc(NC(=O)c3ccc4c(c3)N=S=N4)cc2C(=O)N2Cc3ccccc3C[C@H]2CO)n1 [Example 84] | 1020 to 1040 nM | 862 to 957 nM |
| CCCCN(CCCC)C(=O)c1cc(C)n(-c2ccc(NC(=O)[C@H](OC)c3ccc4ccccc4c3)cc2C(=O)N2Cc3ccccc3C[C@H]2CO)n1 [Example 162] | 43.5 to 44.3 nM | 36.1 to 36.8 nM |
| CCCCN(CCCC)C(=O)c1cc(C)n(-c2ccc(NC(=O)C(Cc3ccccc3)C(=O)O)cc2C(=O)N2Cc3ccccc3C[C@H]2CO)n1 (some centres unmarked) [Example 25] | 67.6 to 67.8 nM | 63.4 to 72.2 nM |
| CCCCN(CCCC)C(=O)c1cc(C)n(-c2ccc(NC(=O)COc3ccc(Cl)cc3)cc2C(=O)N2Cc3ccccc3C[C@H]2CO)n1 [Example 7] | 198 nM | 142 to 161 nM |
| CCCCN(CCCC)C(=O)c1cc(C)n(-c2ccc(NC(=O)c3cccn(Cc4ccccc4)c3=O)cc2C(=O)N2Cc3ccccc3C[C@H]2CO)n1 [Example 116] | 839 to 856 nM | 731 to 786 nM |
| CCCCN(CCCC)C(=O)c1cc(C)n(-c2ccc(NC(=O)C(Cc3ccccc3)C(=O)O)cc2C(=O)N2Cc3ccccc3C[C@H]2CO)n1 (some centres unmarked) [Example 34] | 67.6 to 67.8 nM | 63.4 to 72.2 nM |
| CCCCN(CCCC)C(=O)c1cc(C)n(-c2ccc(NC(=O)c3ccc(Oc4ccccc4)nc3)cc2C(=O)N2Cc3ccccc3C[C@H]2CO)n1 [Example 141] | 2470 to 2630 nM | 1970 to 2070 nM |
| CCCCN(CCCC)C(=O)c1cc(C)n(-c2ccc(NC(=O)c3ccccc3Nc3ccccc3[N+](=O)[O-])cc2C(=O)N2Cc3ccccc3C[C@H]2CO)n1 [Example 146] | 467 to 500 nM | 396 to 471 nM |
| CCCCN(CCCC)C(=O)c1cc(C)n(-c2ccc(NC(=O)c3ncoc3-c3ccccc3)cc2C(=O)N2Cc3ccccc3C[C@H]2CO)n1 [Example 44] | 273 to 284 nM | 236 to 238 nM |
| CCCCN(CCCC)C(=O)c1cc(C)n(-c2ccc(NC(=O)C3CC(=O)N(Cc4ccccc4)C3)cc2C(=O)N2Cc3ccccc3C[C@H]2CO)n1 (some centres unmarked) [Example 101] | 130 to 167 nM | 114 to 150 nM |
| CCCCN(CCCC)C(=O)c1cc(C)n(-c2ccc(NC(=O)C(CC(=O)NC)c3ccccc3)cc2C(=O)N2Cc3ccccc3C[C@H]2CO)n1 (some centres unmarked) [Example 55] | 100 to 129 nM | 81 to 110 nM |
| CCCCN(CCCC)C(=O)c1cc(C)n(-c2ccc(NC(=O)Cc3ccc(OC)c(C(F)(F)F)c3)cc2C(=O)N2Cc3ccccc3C[C@H]2CO)n1 [Example 78] | 99.9 to 103 nM | 73.6 to 83.8 nM |
| CCCCN(CCCC)C(=O)c1cc(C)n(-c2ccc(NC(=O)c3ccccc3COc3ccccc3)cc2C(=O)N2Cc3ccccc3C[C@H]2CO)n1 [Example 92] | 1270 to 1350 nM | 1120 to 1180 nM |
| CCCCN(CCCC)C(=O)c1cc(C)n(-c2ccc(NC(=O)c3cc(OC)ccc3O)cc2C(=O)N2Cc3ccccc3C[C@H]2CO)n1 [Example 153] | 438 to 511 nM | 393 to 448 nM |
| CCCCN(CCCC)C(=O)c1cc(C)n(-c2ccc(NC(=O)c3cc(F)ccc3C(F)(F)F)cc2C(=O)N2Cc3ccccc3C[C@H]2CO)n1 [Example 145] | 1670 nM and 1170 to 1220 nM | 1250 to 1270 nM and 964 to 1220 nM |
| CCCCN(CCCC)C(=O)c1cc(C)n(-c2ccc(NC(=O)C(C)C)cc2C(=O)N2Cc3ccccc3C[C@H]2CO)n1 [Example 163] | – | 481 to 495 nM |
| CCCCN(CCCC)C(=O)c1cc(C)n(-c2ccc(NC(=O)C(CC(=O)N(C)C)c3ccccc3)cc2C(=O)N2Cc3ccccc3C[C@H]2CO)n1 (some centres unmarked) [Example 36] | – | 111 to 144 nM |
| CCCCN(CCCC)C(=O)c1cc(C)n(-c2ccc(NC(=O)c3ccc(Cl)cc3I)cc2C(=O)N2Cc3ccccc3C[C@H]2CO)n1 [Example 82] | 1330 to 1470 nM | – |
